Measured values from article PMC9088073, “Discovery of 2-Phenylquinolines with Broad-Spectrum Anti-coronavirus Activity” (ACS Medicinal Chemistry Letters, 2022).

What was measured:
VeroE6 cells = conditions: uninfected VeroE6 cells, MTS assay; mean ± SD of duplicate experiments
in vitro = conditions: chlorocebus sabaeus
SARS-CoV-2 = assay: microbe, parasite or virus in culture; format: cell-based; conditions: Severe acute respiratory syndrome coronavirus 2; […]; mean ± SD of duplicate experiments; read-out: Anti-SARS-CoV-2 activity EC50

Structure (SMILES): CCCOc1ccc(-c2cc(OCCN3CCN(Cc4ccccc4)CC3)c3cccc(OC)c3n2)cc1 [Compound 5f]
- VeroE6 cells CC50 (VeroE6 cells): lacked cytotoxicity
- CC50 (in vitro): > 100 µM
- EC50 (SARS-CoV-2): 35.9 ± 32.2 µM
- melting point: 95 to 97 °C
